Results: patent US20260283968A1, “METHOD FOR PRODUCING MILK LIKE PRODUCTS” (SOCIÉTÉ DES PRODUITS NESTLÉ S.A., priority 2023, published 2026)

Tests used:
[1] = test system: iPSCs derived mammary gland organoids; assay: Flow cytometry quantification of mammary gland progenitor markers during 3D differentiation of iPSCs; assay type: cell-based, human; conditions: 20 ng/mL BMP4, 1 μM RA, single or combination, 42 days or 31 days protocol, vs control condition
Source text: In order to generate milk bioactives that closely resemble those found in human breast milk, different methods using bone morphogenetic protein 4 (BMP4) and retinoic acid (RA) in 42 days and 31 days as a shortened time-course protocol were established in a 3D-platform using iPSCs derived mammary gland organoids as a biomimetic model of the human mammary gland (FIG. 6).

[2] = test system: iPS-derived mammary-gland cells; assay: LC-MS/MS targeted proteomic analysis of osteopontin secretion in culture media; assay type: cell-based, human; conditions: BMP4 and RA added to the differentiation culture medium

## CC1=C(/C=C/C(C)=C/C=C/C(C)=C/C(=O)O)C(C)(C)CCC1 [RA, retinoic acid]
[1]
  expression of mammary gland progenitor markers EpCAM (CD326), CD49f, MUC1 (CD227), GATA3: can induce the expression of mammary gland progenitor markers
[2]
  expression and secretion of milk-specific bioactive marker osteopontin (OPN): improve expression and secretion levels of milk-specific bioactive markers

B1: BMP4: bone morphogenetic protein 4, differentiation factor added to the culture medium (protein, UniProt P12644 293-408, looked up)
Bone morphogenetic protein 4: SPKHHSQRARKKNKNCRRHSLYVDFSDVGWNDWIVAPPGYQAFYCHGDCPFPLADHLNSTNHAIVQTLVNSVNSSIPKACCVPTELSAISMLYLDEYDKVVLKNYQEMVVEGCGCR
[1]
  expression of mammary gland progenitor markers EpCAM (CD326), CD49f, MUC1 (CD227), GATA3: can induce the expression of mammary gland progenitor markers
[2]
  expression and secretion of milk-specific bioactive marker osteopontin (OPN): improve expression and secretion levels of milk-specific bioactive markers
